Source: patent publication US20100056516A1 (priority 2006, published 2010)
pIC50: −log10 of the molar value.

Tests used:
[1] = system: HXB2 virus; assay: microbe, parasite or virus in culture; assay type: cell-based, HIV; settings: Human immunodeficiency virus 1, HXB2, HeLaP4-2, read-out: antiviral IC50 (SCIA-B)
Procedure: An assay for measuring the inhibition of acute HIV infection with HeLa P4-2 cells in a single cycle infectivity assay (SCIA-A) was conducted in accordance with Joyce, J. G., et al., J. Biol. Chem., 2002, 277, 45811, Hazuda, D. J. et al., Science, 2000, 287, 646, and Kimpton, J. et al, J. Virol. 1992, 66, 2232. Infectious virus was produced by transfecting 293T cells with HIV proviral DNA in which the integrase gene was derived from a IIIB isolate and the remainder of the HIV genome was derived from the NL4-3 isolate.
This assay B for measuring the inhibition of acute HIV infection with HeLa P4-2 cells in a single cycle infectivity assay (SCIA-B) is essentially the same as Assay A described above, except that HXB2 virus is employed instead of the IIIb isolate.

[2] = molecular target: HIV integrase (Human immunodeficiency virus type 1 group M subtype B, UniProt P04585); assay: integrase strand transfer assay (STA); assay type: biochemical; settings: integrase strand transfer; read-out: IC50 in the STA assay

| SMILES | pIC50 [1] | pIC50 [2] |
| --- | --- | --- |
| O=C(NCc1ccccc1)c1c(O)c2cccnc2n(O)c1=O [Example 19, N-benzyl-1,4-dihydroxy-2-oxo-1,2-dihydro-1,8-naphthyridine-3-carboxamide] | > 4.00 | > 4.30 |
| O=C(Nc1ccccc1)c1c(O)c2cccnc2n(O)c1=O [Example 20, 1,4-Dihydroxy-2-oxo-N-phenyl-1,2-dihydro-1,8-naphthyridine-3-carboxamide] | > 4.00 | > 4.30 |
| O=C(NCC(F)(F)F)c1c(O)c2cccnc2n(O)c1=O [Example 22, 1,4-Dihydroxy-2-oxo-N-(2,2,2-trifluoroethyl)-1,2-dihydro-1,8-naphthyridine-3-carboxamide] | > 4.00 | > 4.30 |
| CC(NC(=O)c1c(O)c2cccnc2n(O)c1=O)c1ccccc1 (stereo not shown) [Example 23, 1,4-Dihydroxy-2-oxo-N-(1-phenylethyl)-1,2-dihydro-1,8-naphthyridine-3-carboxamide] | > 4.00 | > 4.30 |
| O=C(NCC1CCNC1)c1c(O)c2cccnc2n(O)c1=O (stereo not shown) [Example 25, 1,4-Dihydroxy-2-oxo-N-(pyrrolidin-3-ylmethyl)-1,2-dihydro-1,8-naphthyridine-3-carboxamide] | > 4.00 | > 4.30 |
| O=c1c(-c2c(F)cccc2F)c(O)c2cccnc2n1O [Example 29, 3-(2,6-Difluorophenyl)-1,4-dihydroxy-1,8-naphthyridin-2(1H)-one] | > 4.00 | > 4.30 |
| O=c1c(-c2ccccc2)c(O)c2cccnc2n1O [Example 30, 1,4-Dihydroxy-3-phenyl-1,8-naphthyridin-2-(1H)-one] | > 4.00 | > 4.30 |
| COc1ccc(-c2c(O)c3cccnc3n(O)c2=O)cc1 [Example 31, 1,4-Dihydroxy-3-(4-methoxyphenyl)-1,8-naphthyridin-2(1H)-one] | > 4.00 | > 4.30 |
| O=c1c(-c2ccccc2F)c(O)c2cccnc2n1O [Example 32, 3-(2-Fluorophenyl)-1,4-dihydroxy-1,8-naphthyridin-2(1H)-one] | > 4.00 | > 4.30 |
| O=c1c(-c2ccc(F)cc2)c(O)c2cccnc2n1O [Example 34, 3-(4-Fluorophenyl)-1,4-dihydroxy-1,8-naphthyridin-2(1H)-one] | > 4.00 | > 4.30 |
| O=c1c(-c2ccccc2Cl)c(O)c2cccnc2n1O [Example 35, 3-(2-Chlorophenyl)-1,4-dihydroxy-1,8-naphthyridin-2(1H)-one] | > 4.00 | > 4.30 |
| O=c1c(-c2cccc(F)c2)c(O)c2cccnc2n1O [Example 36, 3-(3-Fluorophenyl)-1,4-dihydroxy-1,8-naphthyridin-2(1H)-one] | > 4.00 | > 4.30 |
| O=c1c(-c2ccc(Cl)cc2)c(O)c2cccnc2n1O [Example 37, 3-(4-Chlorophenyl)-1,4-dihydroxy-1,8-naphthyridin-2(1H)-one] | > 4.00 | > 4.30 |
| O=c1c(-c2ccc(Br)cc2)c(O)c2cccnc2n1O [Example 38, 3-(4-Bromophenyl)-1,4-dihydroxy-1,8-naphthyridin-2(1H)-one] | > 4.00 | > 4.30 |
| COc1ccccc1-c1c(O)c2cccnc2n(O)c1=O [Example 39, 1,4-Dihydroxy-3-(2-methoxyphenyl)-1,8-naphthyridin-2(1H)-one] | > 4.00 | > 4.30 |
| O=c1c(C2CCCC2)c(O)c2cccnc2n1O [Example 41, 3-Cyclopentyl-1,4-dihydroxy-1,8-naphthyridin-2(1H)-one] | > 4.00 | > 4.30 |

| SMILES | pIC50 [1] | pIC50 [2] |
| --- | --- | --- |
| CCCCc1c(O)c2cccnc2n(O)c1=O [Example 42, 3-Butyl-1,4-dihydroxy-1,8-naphthyridin-2(1H)-one] | > 4.00 | > 4.30 |
| O=c1c(-c2cccc(Br)c2)c(O)c2cccnc2n1O [Example 44, 3-(3-bromophenyl)-1,4-dihydroxy-1,8-naphthyridin-2(1H)-one] | > 4.00 | > 4.30 |
| N#Cc1ccc(-c2c(O)c3cccnc3n(O)c2=O)cc1 [Example 45, 4-(1,4-dihydroxy-2-oxo-1,2-dihydro-1,8-naphthyridin-3-yl)benzonitrile] | > 4.00 | > 4.30 |
| O=c1c(-c2ccccc2O)c(O)c2cccnc2n1O [Example 46, 1,4-dihydroxy-3-(2-hydroxyphenyl)-1,8-naphthyridin-2(1H)-one] | > 4.00 | > 4.30 |
| O=c1c(-c2ccccc2)c(O)c2cc(Br)cnc2n1O [Example 47, 6-Bromo-1,4-dihydroxy-3-phenyl-1,8-naphthyridin-2(1H)-one] | > 4.00 | > 4.30 |
| CCOC(=O)c1c(O)c2cc(-c3ccccc3)cnc2n(O)c1=O [Example 49, Ethyl 1,4-dihydroxy-2-oxo-6-phenyl-1,2-dihydro-1,8-naphthyridine-3-carboxylate] | > 4.00 | > 4.30 |
| NCc1cccc(-c2cnc3c(c2)c(O)c(-c2ccccc2)c(=O)n3O)c1 [Example 50, 6-[3-(Aminomethyl)phenyl]-1,4-dihydroxy-3-phenyl-1,8-naphthyridin-2(1H)-one] | > 4.00 | > 4.30 |
| O=c1c(-c2ccccc2)c(O)c2cc(-c3ccccc3)cnc2n1O [Example 51, 1,4-Dihydroxy-3,6-diphenyl-1,8-maphthyridin-2(1H)-one] | > 4.00 | > 4.30 |
| O=c1c(-c2ccccc2)c(O)c2cc(Cc3ccccc3)cnc2n1O [Example 52, 6-Benzyl-1,4-dihydroxy-3-phenyl-1,8-naphthyridin-2(1H)-one] | > 4.00 | > 4.30 |
| O=c1c(-c2ccccc2)c(O)c2cc(-c3ccccc3-n3cccn3)cnc2n1O [Example 53, 1,4-Dihydroxy-3-phenyl-6-[2-(1H-pyrazol-1-yl)phenyl]-1,8-naphthyridin-2(1H)-one] | > 4.00 | > 4.30 |
| O=c1c(-c2ccccc2)c(O)c2cc(-c3cccc(-c4ccccc4)c3)cnc2n1O [Example 54, 6-Biphenyl-3-yl-1,4-dihydroxy-3-phenyl-1,8-naphthyridin-2(1H)-one] | > 4.00 | > 4.30 |
| O=c1c(-c2ccccc2)c(O)c2cc(/C=C/c3ccccc3)cnc2n1O [Example 55, 1,4-Dihydroxy-3-phenyl-6-[(E)-2-phenylvinyl]-1,8-naphthyridin-2(1H)-one] | > 4.00 | > 4.30 |
| O=c1c(-c2ccccc2)c(O)c2cc(-c3ccc4ccccc4c3)cnc2n1O [Example 56, 1,4-Dihydroxy-6-(2-naphthyl)-3-phenyl-1,8-naphthyridin-2(1H)-one] | > 4.00 | > 4.30 |
| CCOC(=O)c1c(O)c2cc(-c3cccnc3)cnc2n(O)c1=O [Example 58, Ethyl 1,4-dihydroxy-2-oxo-6-pyridin-3-yl-1,2-dihydro-1,8-naphthyridine-3-carboxylate] | > 4.00 | > 4.30 |
| CCOC(=O)c1c(O)c2cc(-c3cccc(C#N)c3)cnc2n(O)c1=O [Example 60, Ethyl 6-(3-cyanophenyl)-1,4-dihydroxy-2-oxo-1,2-dihydro-1,8-naphthyridine-3-carboxylate] | < 4.00 | > 4.30 |
| CCOC(=O)c1c(O)c2cc(-c3ccccc3OC)cnc2n(O)c1=O [Example 61, Ethyl 1,4-dihydroxy-6-(2-methoxyphenyl)-2-oxo-1,2-dihydro-1,8-naphthyridine-3-carboxylate] | > 4.00 | > 4.30 |
